Reference: patent US20260355196A1, “INHIBITORS AND DEGRADERS OF PIP4K PROTEIN” (Larkspur Biosciences, Inc., priority 2023, published 2026)

Target: T1, PIP4K2C (Homo sapiens, UniProt Q8TBX8)
T1 sequence (Q8TBX8 1-421): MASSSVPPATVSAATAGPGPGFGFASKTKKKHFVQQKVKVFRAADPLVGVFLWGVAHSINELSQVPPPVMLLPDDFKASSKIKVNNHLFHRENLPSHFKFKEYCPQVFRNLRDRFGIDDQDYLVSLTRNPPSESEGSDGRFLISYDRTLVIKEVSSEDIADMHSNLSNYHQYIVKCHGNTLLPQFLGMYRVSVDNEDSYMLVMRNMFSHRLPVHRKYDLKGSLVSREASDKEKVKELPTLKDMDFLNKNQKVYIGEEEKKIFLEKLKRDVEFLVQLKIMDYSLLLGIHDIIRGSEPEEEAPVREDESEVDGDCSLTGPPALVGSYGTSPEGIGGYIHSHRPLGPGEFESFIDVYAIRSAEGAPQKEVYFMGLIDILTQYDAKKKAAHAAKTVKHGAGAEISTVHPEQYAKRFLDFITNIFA
Test: HiBiT PIP4K2C degradation assay in MOLT-4 cells (endogenous PIP4K2C C-terminally tagged with HiBiT)
Type: cell-based
Parameters: untagged in primary human PBMCs and monocyte-derived dendritic cells
Details: 6 hours of incubation time, rather than 24 hours; MOLT-4, top concentration 10 micromolar; read-out: HiBIT-degradation MOLT4 PIP4k2C DC50 (6 hours, marked *)
How it was run: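 Luminescent HiBiT lytic readout of residual PIP4K2C-HiBiT (CRISPR knock-in, MOLT-4, phenol red-free RPMI-1640 + 10% FBS). Cells exposed 6 or 24 h at 37 C to compound, top 10 micromolar, 3-fold, 10 points, duplicate. Hill fit (Levenberg-Marquardt) gives DC50.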

SMILES	DC50 [nM]
O=C1CCC(Nc2ccc(C3CCN([C@H]4CC[C@H](C(=O)N[C@H]5CC[C@H](Nc6ncc(F)c(-c7cccc(N8CCOCC8=O)n7)n6)CC5)CC4)CC3)c(F)c2)C(=O)N1 (stereo partly drawn) [Compound 538, trans-(1r,4R)-4-(4-(4-((2,6-dioxopiperidin-3-yl)amino)-2-fluorophenyl)piperidin-1-yl)-N-((1r,4R)-4-((5-fluoro-4-(6-(3-oxomorpholino)pyridin-2-yl)pyrimidin-2-yl)amino)cyclohexyl)cyclohexane-1-carboxamide]	> 5000
Cn1nc(N2CCC(=O)NC2=O)c2cc(F)c(C3CCN(CC4CCN(C(=O)[C@H]5CC[C@H](Nc6ncc(F)c(-c7cccc(-n8ccccc8=O)c7)n6)CC5)CC4)CC3)cc21 [Compound 540, trans-1-(5-fluoro-6-(1-((1-((1r,4r)-4-((5-fluoro-4-(3-(2-oxopyridin-1(2H)-yl)phenyl)pyrimidin-2-yl)amino)cyclohexane-1-carbonyl)piperidin-4-yl)methyl)piperidin-4-yl)-1-methyl-1H-indazol-3-yl)dihydropyrimidine-2,4(1H,3H)-dione]	> 5000
O=C1CCC(Nc2ccc(C3CCN([C@H]4CC[C@H](NC(=O)[C@H]5CC[C@H](Nc6ncc(F)c(-c7cccc(N8CCOCC8=O)n7)n6)CC5)CC4)CC3)c(F)c2)C(=O)N1 (stereo partly drawn) [Compound 545, trans-N-(trans-4-(4-(4-((2,6-dioxopiperidin-3-yl)amino)-2-fluorophenyl)piperidin-1-yl)cyclohexyl)-4-((5-fluoro-4-(6-(3-oxomorpholino)pyridin-2-yl)pyrimidin-2-yl)amino)cyclohexane-1-carboxamide]	< 500
O=C1CCC(Nc2ccc(C3CCN([C@H]4CC[C@H](NC(=O)[C@H]5CC[C@H](Nc6ncc(F)c(-c7cccc(N8CCCCC8=O)n7)n6)CC5)CC4)CC3)c(F)c2)C(=O)N1 (stereo partly drawn) [Compound 546, trans-N-(trans-4-(4-(4-((2,6-dioxopiperidin-3-yl)amino)-2-fluorophenyl)piperidin-1-yl)cyclohexyl)-4-((5-fluoro-4-(6-(2-oxopiperidin-1-yl)pyridin-2-yl)pyrimidin-2-yl)amino)cyclohexane-1-carboxamide]	< 500
O=C1CCC(Nc2ccc(C3CCN([C@H]4CC[C@H](NC(=O)[C@H]5CC[C@H](Nc6ncc(F)c(-c7ccnc(C8(O)CCC8)c7)n6)CC5)CC4)CC3)c(F)c2)C(=O)N1 (stereo partly drawn) [Compound 548, trans-N-(trans-4-(4-(4-((2,6-dioxopiperidin-3-yl)amino)-2-fluorophenyl)piperidin-1-yl)cyclohexyl)-4-((5-fluoro-4-(2-(1-hydroxycyclobutyl)pyridin-4-yl)pyrimidin-2-yl)amino)cyclohexane-1-carboxamide]	< 500
O=C1CCC(Nc2ccc(C3CCN([C@H]4CC[C@H](NC(=O)[C@H]5CC[C@H](Nc6ncc(F)c(-c7ccnc(N8CCCCC8=O)c7)n6)CC5)CC4)CC3)c(F)c2)C(=O)N1 (stereo partly drawn) [Compound 549, trans-N-(trans-4-(4-(4-((2,6-dioxopiperidin-3-yl)amino)-2-fluorophenyl)piperidin-1-yl)cyclohexyl)-4-((5-fluoro-4-(2-(2-oxopiperidin-1-yl)pyridin-4-yl)pyrimidin-2-yl)amino)cyclohexane-1-carboxamide]	< 500
O=C1CCC(Nc2ccc(C3CCN(CC4CCN(C(=O)[C@H]5CC[C@H](Nc6ncc(F)c(-c7cccc(N8CCOCC8=O)c7)n6)CC5)CC4)CC3)c(F)c2)C(=O)N1 (stereo partly drawn) [Compound 552, trans-3-((3-fluoro-4-(1-((1-(4-((5-fluoro-4-(3-(3-oxomorpholino)phenyl)pyrimidin-2-yl)amino)cyclohexane-1-carbonyl)piperidin-4-yl)methyl)piperidin-4-yl)phenyl)amino)piperidine-2,6-dione]	< 500

Other lines, results leading:

DC50 [nM]	SMILES
< 500	O=C1CCC(Nc2ccc(N3CCN([C@H]4CC[C@H](C(=O)N[C@H]5CC[C@H](Nc6ncc(F)c(-c7cccc(N8CCCCC8)c7)n6)CC5)CC4)CC3)c(F)c2)C(=O)N1 (stereo partly drawn) [Compound 541, trans-4-(4-(4-((2,6-dioxopiperidin-3-yl)amino)-2-fluorophenyl)piperazin-1-yl)-N-(trans-4-((5-fluoro-4-(3-(piperidin-1-yl)phenyl)pyrimidin-2-yl)amino)cyclohexyl)cyclohexane-1-carboxamide]
< 500	O=C1CC[C@H](Nc2ccc(N3CCC(N4CCC(C(=O)N[C@H]5CC[C@H](Nc6ncc(F)c(-c7cccc(N8CCCOC8=O)c7)n6)CC5)CC4)CC3)c(F)c2)C(=O)N1 [Compound 542, 1′-(4-(((S)-2,6-dioxopiperidin-3-yl)amino)-2-fluorophenyl)-N-((trans)-4-((5-fluoro-4-(3-(2-oxo-1,3-oxazinan-3-yl)phenyl)pyrimidin-2-yl)amino)cyclohexyl)-[1,4′-bipiperidine]-4-carboxamide]
< 500	O=C1CC[C@@H](Nc2ccc(N3CCC(N4CCC(C(=O)N[C@H]5CC[C@H](Nc6ncc(F)c(-c7cccc(N8CCCOC8=O)c7)n6)CC5)CC4)CC3)c(F)c2)C(=O)N1 [Compound 543, 1′-(4-(((R)-2,6-dioxopiperidin-3-yl)amino)-2-fluorophenyl)-N-((trans)-4-((5-fluoro-4-(3-(2-oxo-1,3-oxazinan-3-yl)phenyl)pyrimidin-2-yl)amino)cyclohexyl)-[1,4′-bipiperidine]-4-carboxamide]
< 500	O=C1CC[C@@H](Nc2ccc(N3CCN([C@H]4CC[C@H](C(=O)N[C@H]5CC[C@H](Nc6ncc(F)c(-c7cccc(-c8ccc[nH]c8=O)c7)n6)CC5)CC4)CC3)c(F)c2)C(=O)N1 [Compound 544, trans-4-(4-(4-(((R)-2,6-dioxopiperidin-3-yl)amino)-2-fluorophenyl)piperazin-1-yl)-N-((trans)-4-((5-fluoro-4-(3-(2-oxo-1,2-dihydropyridin-3-yl)phenyl)pyrimidin-2-yl)amino)cyclohexyl)cyclohexane-1-carboxamide]
< 500	O=C1CCC(Nc2ccc(C3CCN([C@H]4CC[C@H](NC(=O)[C@H]5CC[C@H](Nc6ncc(F)c(-c7cccc(N8CCOCC8=O)c7)n6)CC5)CC4)CC3)c(F)c2)C(=O)N1 (stereo partly drawn) [Compound 547, trans-N-(trans-4-(4-(4-((2,6-dioxopiperidin-3-yl)amino)-2-fluorophenyl)piperidin-1-yl)cyclohexyl)-4-((5-fluoro-4-(3-(3-oxomorpholino)phenyl)pyrimidin-2-yl)amino)cyclohexane-1-carboxamide]
< 500	O=C1CCC(Nc2ccc(C3CCN([C@H]4CC[C@H](NC(=O)[C@H]5CC[C@H](Nc6ncc(F)c(-c7ccnc(N8CCCOC8=O)c7)n6)CC5)CC4)CC3)c(F)c2)C(=O)N1 (stereo partly drawn) [Compound 550, trans-N-((trans)-4-(4-(4-((2,6-dioxopiperidin-3-yl)amino)-2-fluorophenyl)piperidin-1-yl)cyclohexyl)-4-((5-fluoro-4-(2-(2-oxo-1,3-oxazinan-3-yl)pyridin-4-yl)pyrimidin-2-yl)amino)cyclohexane-1-carboxamide]
< 500	Cc1ccc(=O)n(-c2cccc(-c3nc(N[C@H]4CC[C@H](C(=O)N[C@H]5CC[C@H](N6CCC(c7ccc(NC8CCC(=O)NC8=O)cc7F)CC6)CC5)CC4)ncc3F)c2)c1 (stereo partly drawn) [Compound 551, trans-N-(trans-4-(4-(4-((2,6-dioxopiperidin-3-yl)amino)-2-fluorophenyl)piperidin-1-yl)cyclohexyl)-4-((5-fluoro-4-(3-(5-methyl-2-oxopyridin-1 (2H)-yl)phenyl)pyrimidin-2-yl)amino)cyclohexane-1-carboxamide]
